Measurements from ChEMBL document CHEMBL4052588, “Design of a Biased Potent Small Molecule Inhibitor of the Bromodomain and PHD Finger-Containing (BRPF) Proteins Suitable for Cellular and in Vivo Studies” (J Med Chem, 2017).

Key:
Peregrin = target: T1, Peregrin (Homo sapiens, UniProt P55201); assay: Inhibition of human BRPF1 expressed in Escherichia coli BL21 after 1 hr by BROMOscan assay
T1 sequence (P55201 whole entry): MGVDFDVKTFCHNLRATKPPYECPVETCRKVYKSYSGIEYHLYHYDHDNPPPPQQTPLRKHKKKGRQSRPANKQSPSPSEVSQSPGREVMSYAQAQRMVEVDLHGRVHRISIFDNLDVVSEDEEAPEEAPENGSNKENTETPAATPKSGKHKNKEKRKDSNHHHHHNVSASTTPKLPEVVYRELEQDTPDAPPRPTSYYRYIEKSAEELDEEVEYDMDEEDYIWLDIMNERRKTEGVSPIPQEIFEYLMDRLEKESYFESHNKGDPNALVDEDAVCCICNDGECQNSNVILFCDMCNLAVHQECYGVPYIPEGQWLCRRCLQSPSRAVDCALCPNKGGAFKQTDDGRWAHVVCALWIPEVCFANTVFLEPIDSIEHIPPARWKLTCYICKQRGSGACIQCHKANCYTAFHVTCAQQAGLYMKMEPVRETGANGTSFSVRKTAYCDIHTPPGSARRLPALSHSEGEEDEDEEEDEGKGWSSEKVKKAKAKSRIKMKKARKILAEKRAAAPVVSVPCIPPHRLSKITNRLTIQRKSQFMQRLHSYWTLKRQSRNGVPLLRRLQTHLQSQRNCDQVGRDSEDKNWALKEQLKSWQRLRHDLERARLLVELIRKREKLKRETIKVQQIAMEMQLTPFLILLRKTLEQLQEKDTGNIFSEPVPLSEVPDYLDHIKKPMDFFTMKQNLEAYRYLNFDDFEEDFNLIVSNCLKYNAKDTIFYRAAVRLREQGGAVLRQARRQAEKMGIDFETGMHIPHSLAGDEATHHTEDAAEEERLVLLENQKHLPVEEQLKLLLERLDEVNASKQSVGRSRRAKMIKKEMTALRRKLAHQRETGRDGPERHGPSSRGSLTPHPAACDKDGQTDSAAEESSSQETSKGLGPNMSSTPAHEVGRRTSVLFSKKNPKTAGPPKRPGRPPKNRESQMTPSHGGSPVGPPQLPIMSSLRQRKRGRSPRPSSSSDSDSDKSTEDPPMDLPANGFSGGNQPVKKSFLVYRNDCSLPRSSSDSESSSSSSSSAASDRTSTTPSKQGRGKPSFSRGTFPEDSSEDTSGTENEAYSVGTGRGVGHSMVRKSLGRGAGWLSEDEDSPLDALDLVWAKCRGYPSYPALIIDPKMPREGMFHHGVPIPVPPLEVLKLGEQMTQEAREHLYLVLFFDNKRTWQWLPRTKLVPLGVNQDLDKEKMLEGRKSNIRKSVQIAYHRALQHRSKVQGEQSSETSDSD

[1] = target: T2, Bromodomain-containing protein 9 (Homo sapiens, UniProt Q9H8M2); assay: Inhibition of human BRD9 expressed in Escherichia coli BL21 after 1 hr by BROMOscan assay
T2 sequence (Q9H8M2 whole entry): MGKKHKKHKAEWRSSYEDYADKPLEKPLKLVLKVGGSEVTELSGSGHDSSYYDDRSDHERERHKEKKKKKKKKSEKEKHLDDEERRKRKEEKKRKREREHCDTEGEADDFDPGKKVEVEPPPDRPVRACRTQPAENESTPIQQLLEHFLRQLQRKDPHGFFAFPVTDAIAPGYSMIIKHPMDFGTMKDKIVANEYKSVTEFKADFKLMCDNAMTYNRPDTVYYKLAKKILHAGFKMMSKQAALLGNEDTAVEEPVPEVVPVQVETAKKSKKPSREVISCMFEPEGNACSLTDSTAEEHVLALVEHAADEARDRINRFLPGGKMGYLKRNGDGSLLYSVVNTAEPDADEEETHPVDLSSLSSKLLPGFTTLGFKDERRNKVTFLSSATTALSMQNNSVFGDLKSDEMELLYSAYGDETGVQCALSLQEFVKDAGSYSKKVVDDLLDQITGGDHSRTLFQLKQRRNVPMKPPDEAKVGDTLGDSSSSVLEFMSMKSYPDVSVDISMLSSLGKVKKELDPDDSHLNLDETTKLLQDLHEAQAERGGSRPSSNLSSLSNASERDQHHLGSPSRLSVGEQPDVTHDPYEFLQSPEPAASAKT

[2] = target: T3, Bromodomain-containing protein 4 (Homo sapiens, UniProt O60885); assay: Inhibition of human BRD4-BD1 expressed in Escherichia coli BL21 after 1 hr by BROMOscan assay
[3] = target: T4, Bromodomain-containing protein 1 (Homo sapiens) (UniProt O95696)
T4 sequence (whole entry): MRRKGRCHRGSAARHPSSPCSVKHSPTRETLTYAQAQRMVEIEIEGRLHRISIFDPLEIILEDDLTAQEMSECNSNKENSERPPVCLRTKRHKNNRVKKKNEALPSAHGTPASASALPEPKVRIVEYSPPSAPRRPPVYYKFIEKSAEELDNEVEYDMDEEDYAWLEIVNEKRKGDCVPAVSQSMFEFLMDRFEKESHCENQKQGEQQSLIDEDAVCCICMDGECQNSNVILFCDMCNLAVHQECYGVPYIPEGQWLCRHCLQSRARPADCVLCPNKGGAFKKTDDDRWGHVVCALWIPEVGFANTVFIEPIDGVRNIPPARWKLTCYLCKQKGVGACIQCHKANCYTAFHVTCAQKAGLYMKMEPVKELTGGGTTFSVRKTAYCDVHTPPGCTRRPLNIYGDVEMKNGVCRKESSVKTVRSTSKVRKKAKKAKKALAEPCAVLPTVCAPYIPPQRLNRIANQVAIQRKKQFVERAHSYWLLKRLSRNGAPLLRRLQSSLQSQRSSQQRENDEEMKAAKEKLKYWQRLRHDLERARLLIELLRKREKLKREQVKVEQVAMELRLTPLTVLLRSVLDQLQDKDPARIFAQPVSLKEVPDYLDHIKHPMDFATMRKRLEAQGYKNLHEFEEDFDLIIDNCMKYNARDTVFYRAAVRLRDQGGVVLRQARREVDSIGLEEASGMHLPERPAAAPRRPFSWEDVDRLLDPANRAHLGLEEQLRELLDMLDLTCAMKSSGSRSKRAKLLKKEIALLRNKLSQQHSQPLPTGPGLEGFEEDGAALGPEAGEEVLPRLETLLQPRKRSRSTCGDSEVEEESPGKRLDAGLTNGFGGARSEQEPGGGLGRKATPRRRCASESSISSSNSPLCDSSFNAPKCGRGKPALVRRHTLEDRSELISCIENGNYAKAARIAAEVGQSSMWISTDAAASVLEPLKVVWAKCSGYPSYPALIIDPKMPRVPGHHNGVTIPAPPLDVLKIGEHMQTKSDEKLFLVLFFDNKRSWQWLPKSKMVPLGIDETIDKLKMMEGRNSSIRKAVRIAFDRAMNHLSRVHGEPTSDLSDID

[4] = target: T5, Bromodomain and PHD finger-containing protein 3 (Homo sapiens) (UniProt Q9ULD4)
T5 sequence (whole entry): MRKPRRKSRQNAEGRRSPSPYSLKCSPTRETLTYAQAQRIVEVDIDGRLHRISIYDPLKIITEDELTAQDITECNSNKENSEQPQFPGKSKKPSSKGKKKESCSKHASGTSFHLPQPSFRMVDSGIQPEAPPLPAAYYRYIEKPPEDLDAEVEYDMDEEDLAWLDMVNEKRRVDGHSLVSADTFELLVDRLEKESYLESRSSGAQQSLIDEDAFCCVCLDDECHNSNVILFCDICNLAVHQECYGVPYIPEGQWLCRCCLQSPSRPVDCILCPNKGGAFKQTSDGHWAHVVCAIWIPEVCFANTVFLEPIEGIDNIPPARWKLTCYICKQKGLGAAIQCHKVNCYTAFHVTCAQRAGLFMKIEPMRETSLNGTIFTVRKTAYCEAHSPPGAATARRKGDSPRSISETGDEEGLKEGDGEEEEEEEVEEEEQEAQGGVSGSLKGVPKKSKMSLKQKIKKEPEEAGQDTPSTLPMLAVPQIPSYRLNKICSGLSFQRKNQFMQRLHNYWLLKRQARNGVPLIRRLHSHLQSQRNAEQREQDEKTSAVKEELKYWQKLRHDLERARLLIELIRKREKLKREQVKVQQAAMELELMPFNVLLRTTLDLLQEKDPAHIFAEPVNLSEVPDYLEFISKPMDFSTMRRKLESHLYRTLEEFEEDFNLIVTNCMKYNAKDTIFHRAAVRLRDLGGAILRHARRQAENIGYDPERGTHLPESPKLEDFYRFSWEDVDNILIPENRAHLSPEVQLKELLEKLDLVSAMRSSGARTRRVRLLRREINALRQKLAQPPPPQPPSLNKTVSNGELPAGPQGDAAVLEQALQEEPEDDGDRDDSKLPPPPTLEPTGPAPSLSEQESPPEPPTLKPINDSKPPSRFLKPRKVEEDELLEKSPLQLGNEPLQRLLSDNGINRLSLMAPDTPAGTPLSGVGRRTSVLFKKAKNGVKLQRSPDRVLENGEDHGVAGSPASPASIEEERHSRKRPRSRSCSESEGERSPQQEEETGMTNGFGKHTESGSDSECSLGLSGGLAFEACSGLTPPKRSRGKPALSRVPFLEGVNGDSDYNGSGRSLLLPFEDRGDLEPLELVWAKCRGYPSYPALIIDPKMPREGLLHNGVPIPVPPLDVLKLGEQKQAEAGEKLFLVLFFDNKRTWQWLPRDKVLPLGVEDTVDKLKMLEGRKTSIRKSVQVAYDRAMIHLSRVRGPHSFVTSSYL

[5] = target: T6, Bromodomain-containing protein 9 (Homo sapiens) (UniProt Q9H8M2)
T6 sequence (whole entry): T2 sequence (Q9H8M2 whole entry)

[6] = target: T3, Bromodomain-containing protein 4
Peregrin (Homo sapiens) = target: T7, Peregrin (Homo sapiens) (UniProt P55201)
T7 sequence (whole entry): T1 sequence (P55201 whole entry)

[7] = target: T8, Bromodomain-containing protein 1 (Homo sapiens, UniProt O95696); assay: Inhibition of human BRPF2-BRD1 expressed in Escherichia coli BL21 after 1 hr by BROMOscan assay
T8 sequence (O95696 whole entry): T4 sequence (whole entry)

[8] = target: T9, Bromodomain and PHD finger-containing protein 3 (Homo sapiens, UniProt Q9ULD4); assay: Inhibition of human BRPF3 expressed in Escherichia coli BL21 after 1 hr by BROMOscan assay
T9 sequence (Q9ULD4 whole entry): T5 sequence (whole entry)

Row | Compound | IC50 (Peregrin) | ΔTm [3] | ΔTm [5] | ΔTm [6] | also measured
1 | Cn1c(=O)ccc2cc(N)ccc21 | 2100 nM | – | – | – | –
2 | Cc1cc2cc(N)ccc2n(C)c1=O | 190 nM | – | – | – | –
3 | Cn1c(=O)ccc2cc(NS(=O)(=O)c3ccc(C#N)cc3F)ccc21 | – | 1.3 °C | – | – | ΔTm (Peregrin (Homo sapiens)): 3.6 °C; ΔTm [4]: 1.2 °C
4 | COc1ccccc1S(=O)(=O)Nc1ccc2c(c1)cc(C)c(=O)n2C | – | – | – | – | IC50 [2]: 600 nM
5 | CCn1c(=O)c(C)cc2cc(NS(=O)(=O)c3ccc(C#N)cc3)ccc21 | 15 nM | 1.5 °C | – | – | ΔTm (Peregrin (Homo sapiens)): 5.2 °C; ΔTm [4]: 1.2 °C
6 | CCc1cc2cc(NS(=O)(=O)c3ccc(C#N)cc3)ccc2n(C)c1=O | 180 nM | 3.3 °C | – | – | –
7 | Cn1c(=O)ccc2cc(NS(=O)(=O)c3ccccc3C#N)ccc21 | – | 0.9 °C | 2.9 °C | 1.3 °C | –

Now from value to molecule, other results behind:

Row | IC50 (Peregrin) | ΔTm [3] | ΔTm [5] | ΔTm [6] | Compound | also measured
8 | – | 1.9 °C | 3.5 °C | 1.1 °C | Cn1c(=O)ccc2cc(NS(=O)(=O)c3ccccc3)ccc21 | IC50 [1]: 220 nM; IC50 [2]: 1700 nM; ΔTm [4]: 1.5 °C
9 | – | 2.1 °C | 2.5 °C | 1.1 °C | Cn1c(=O)ccc2cc(NS(=O)(=O)c3cccc(C#N)c3)ccc21 | –
10 | 44 nM | 2.5 °C | – | – | Cn1c(=O)ccc2cc(NS(=O)(=O)c3ccc(Cl)c(Cl)c3)ccc21 | IC50 [7]: 230 nM; ΔTm (Peregrin (Homo sapiens)): 4.9 °C
11 | – | 2.4 °C | 2.3 °C | 1.4 °C | Cn1c(=O)ccc2cc(NS(=O)(=O)c3ccc(C#N)cc3)ccc21 | IC50 [8]: 1000 nM; IC50 [2]: 2800 nM
